What all share (type): functional
Test [1] in a line: Antiplatelet activity in Mus musculus Laca (mouse) platelet assessed as bleeding time at 60 mg/kg, po after 1 hr by tail transaction bleeding test (reference value: 3.2 +/- 0.218 min).
A short description of test [2]: Antiplatelet activity in Mus musculus Laca (mouse) platelet assessed as bleeding time at 30 mg/kg, po after 1 hr by tail transaction bleeding test (reference value: 3.2 +/- 0.218 min).
Test [3] can be described thus: Antiplatelet activity in Mus musculus Laca (mouse) platelet assessed as bleeding time at 7.5 mg/kg, po after 1 hr by tail transaction bleeding test (reference value: 3.2 +/- 0.218 min).
Test [4] can be described thus: Antiplatelet activity in Mus musculus Laca (mouse) platelet assessed as bleeding time at 15 mg/kg, po after 1 hr by tail transaction bleeding test (reference value: 3.2 +/- 0.218 min).
Test [5] can be described thus: Antiplatelet activity in Mus musculus Laca (mouse) platelet assessed as bleeding time at 15 mg/kg, po after 1 hr by tail transaction bleeding test relative to aspirin.

Some results are limits rather than exact numbers.

`COc1ccc(CNc2ccc(C3=NNC(=O)CC3)cc2)cc1OC`: the Time in test [1] turned out to be 7.1 min; in test [2], 6.5 min; in test [3] it was 4.2 min; in test [4], 5.6 min.

`COc1cc(CNc2ccc(C3=NNC(=O)CC3)cc2)cc(OC)c1OC`: the Time in test [1] amounted to 6.5 min; in test [2] it was 6.1 min; in test [3] it was 4.4 min; in test [4], 5.2 min.

In the case of `O=C1CCC(c2ccc(NCc3ccccc3O)cc2)=NN1`, the Time in test [1] turned out to be 9.2 min; in test [2], 8.5 min; in test [3], 4.4 min; in test [4], 7.4 min.

On to `COc1cc(CNc2ccc(C3=NNC(=O)CC3)cc2)ccc1O`, for which the Time in test [1] was 7.3 min; in test [2] it was 6.1 min; in test [3], 4.1 min; in test [4], 5.2 min.

As for `O=C1CCC(c2ccc(NCc3ccc(F)cc3)cc2)=NN1`, the Time in test [1] came to 7 min; in test [2], 6.2 min; in test [3], 3.8 min; in test [4] it was 4.9 min.

Consider `O=C1CCC(c2ccc(NCc3c[nH]c4ccccc34)cc2)=NN1`, for which the “fold change (FC)” value in test [5] is over 2. The Time in test [1] is 9.7 min; in test [2] it was 9.2 min; in test [3] it was 5.5 min; in test [4] it was 8.3 min.

Turning to `O=C1CCC(c2ccc(NCc3ccncc3)cc2)=NN1`, the Time was found to be 7 min in test [1], 6.2 min in test [2], 4.3 min in test [3] and 5.3 min in test [4].

Regarding `O=C1CCC(c2ccc(NCc3cccnc3)cc2)=NN1`, the Time came out at 6.6 min in test [1], 6.2 min in test [2], 4.1 min in test [3] and 5.5 min in test [4].

For the compound `CC(=O)Oc1ccccc1C(=O)O` [ASPIRIN], the Time in test [1] is listed as 6.6 min; in test [2] it was 6.1 min; in test [3], 4.2 min; in test [4], 5.3 min.

The values are drawn from ChEMBL document CHEMBL3045234, “Synthesis of new pyridazinone derivatives as platelet aggregation inhibitors” (2010).
